Consider 12 compounds from patent publication US9512120B2, “Microbicidally active imidazopyridine derivatives” (Syngenta Participations AG, priority 2013, dated 2016).

The term inhibition denotes the percentage by which the read-out fell short of the control. Usually melting point stands for the temperature, or range, at which the solid turns liquid.

Data set [1] has as its system Glomerella lagenarium (Colletotrichum lagenarium). Description: Glomerella lagenarium (Colletotrichum lagenarium) / liquid culture (anthracnose). The class given is cell-based. The settings on record: Colletotrichum orbiculare, PDB, 24° C., 3-4 days after application, read-out: control of Glomerella lagenarium (inhibition of growth, photometric). In short, it runs like this: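 Test compound, delivered in DMSO at an application rate of 200 ppm, was combined with spore-containing PDB. Photometric growth-inhibition measurement followed 3-4 days of incubation at 24° C.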

Data set [2] has as its system Mycosphaerella arachidis (Cercospora arachidicola). Put plainly: Mycosphaerella arachidis (Cercospora arachidicola) / liquid culture (early leaf spot). The class given is cell-based. The settings on record: PDB, 24° C., 4-5 days after application, read-out: control of Mycosphaerella arachidis (inhibition of growth, photometric). In short, it runs like this: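 Conidia suspended in potato dextrose broth and added to test compound from DMSO solution at 200 ppm. Incubated at 24 °C; growth inhibition read photometrically 4-5 days after application.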

In data set [3] the test system is Mycosphaerella graminicola (Septoria tritici). Description: Mycosphaerella graminicola (Septoria tritici) / liquid culture (Septoria blotch). The format is cell-based. The note with it: Zymoseptoria tritici, PDB, 24° C., 4-5 days after application, read-out: control of Mycosphaerella graminicola (inhibition of growth, photometric). In short, it runs like this: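 Growth inhibition was read photometrically after 4–5 days at 24 °C. The test compound was applied at 200 ppm from DMSO solution, then PDB broth seeded with conidia taken straight from cryogenic storage was added.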

The next data set deals with Pythium ultimum. Put plainly: Pythium ultimum / liquid culture (seedling damping off). The note with it: Globisporangium ultimum, potato dextrose broth, 24° C., 2-3 days after application, read-out: control of Pythium ultimum (inhibition of growth, photometric). The format is cell-based. In short, it runs like this: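 Test compound in DMSO at 200 ppm was incubated with mycelia fragments and oospores in potato dextrose broth at 24 °C. Growth inhibition was read photometrically 2-3 days after application.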

In the next data set the test system is Fusarium culmorum. Description: microbe, parasite or virus in culture. The note with it: read-out: control of Fusarium culmorum (inhibition of growth, photometric). The format is cell-based.
Data set [4] relates to Fusarium graminearum, syn. Gibberella zeae. Put plainly: whole plant or invertebrate. The format is in vivo. The note with it: in Triticum aestivum, 144 h, read-out: control of Gibberella zeae (preventative fungicidal activity).
In a further data set the test system is Sclerotinia sclerotiorum. Put plainly: Sclerotinia sclerotiorum liquid culture (cottony rot / white mold). The class given is cell-based. The note with it: PDB, 24° C., 3-4 days after application, read-out: control of Sclerotinia sclerotiorum (inhibition of growth, photometric). The gist of the method: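 Mycelia fragments of Sclerotinia sclerotiorum in potato dextrose broth were added to compound in DMSO. Cultures incubated at 24° C; growth inhibition determined photometrically 3-4 days after application.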

For another data set, the system named is Plasmopara viticola. Put plainly: Plasmopara viticola / grape / leaf disc preventative. The format is in vivo. The note with it: foliar, grape vine leaf disks, inoculated 1 day after application, assessed 6-8 days after application, read-out: control of Plasmopara viticola (percent disease control compared to untreated).
Data set [5] concerns Puccinia recondita f. sp. Tritici. Description: Puccinia recondita f. sp. tritici / wheat / leaf disc curative (brown rust). The format is in vivo. The note with it: foliar, wheat leaf segments cv Kanzler, applied 1 day after inoculation, assessed 6-8 days after application, read-out: control of Puccinia recondita f. sp. Tritici (percent disease control compared to untreated). The protocol: Puccinia recondita f. Sp. Tritici/Wheat/Leaf Disc Curative (Brown Rust): Wheat leaf segments cv Kanzler were placed on agar in 24-well plates. The leaf segments were inoculated with a spore suspension of the fungus. The plates were stored in darkness at 19° C. and 75% relative humidity. The formulated test compound diluted in water was applied at an application rate of 200 ppm 1 day after inoculation. […] Tritici at 200 ppm when compared to untreated control leaf disks under the same conditions, which show extensive disease development: 2, 13, 16, 23, 30, 61, 75, 89, 103, 173, 174

In the case of `CCn1c(-n2ncnc2N)nc2cncc(-c3cccc(F)c3F)c21` [Compound 102, 2-[7-(2,3-difluorophenyl)-1-ethylimidazo[4,5-c]pyridin-2-yl]-1,2,4-triazol-3-amine], the inhibition at 20 ppm (in data set [1]; in [2]; in data set [3]; in the data set on Pythium ultimum; in the data set with Fusarium culmorum; in the data set with Sclerotinia sclerotiorum) was at least 80% throughout. Also, in [4], the pest or weed control at 20 ppm is at least 80%.

`CCn1c(-n2ncnc2N)nc2cncc(/C(C)=N\OC/C=C(\C)Cl)c21` [Compound 153, 2-[7-[(Z)-N-[(E)-3-chlorobut-2-enoxy]-C-methyl-carbonimidoyl]-1-ethyl-imidazo[4,5-c]pyridin-2-yl]-1,2,4-triazol-3-amine]: the pest or weed control at 200 ppm in the data set on Plasmopara viticola is at least 80%. Moreover, the inhibition at 20 ppm (in [1]; in data set [2]; in data set [3]; in the data set with Fusarium culmorum; with Sclerotinia sclerotiorum) was at least 80% in each case.

On to `CCn1c(-n2ncnc2N)nc2cncc(-c3cccc(Cl)c3F)c21` [Compound 90, 2-[7-(3-chloro-2-fluorophenyl)-1-ethylimidazo[4,5-c]pyridin-2-yl]-1,2,4-triazol-3-amine], for which the inhibition at 20 ppm (in data set [1]; in data set [2]; in data set [3]; in the data set on Fusarium culmorum; with Sclerotinia sclerotiorum) was at least 80% each time. The pest or weed control at 20 ppm in data set [4] was at least 80%.

On to `CC=Cc1cncc2nc(-n3ncnc3N)n(CC)c12` [Compound 67, 2-(1-ethyl-7-prop-1-enylimidazo[4,5-c]pyridin-2-yl)-1,2,4-triazol-3-amine], for which the inhibition at 20 ppm (in [1]; in data set [2]; in [3]; in the data set with Pythium ultimum; in the data set with Sclerotinia sclerotiorum) was at least 80% throughout.

Turning to `CCCn1c(-n2ncnc2N)nc2cncc(C)c21` [Compound 173, 2-(7-methyl-1-propyl-imidazo[4,5-c]pyridin-2-yl)-1,2,4-triazol-3-amine], in data set [5], the pest or weed control at 200 ppm was at least 80%. The inhibition at 20 ppm (in data set [1]; in [2]; in data set [3]; in the data set with Pythium ultimum) was at least 80% each time.

Regarding `CCn1c(-n2ncnc2N)nc2cncc(-c3cccc(OC)c3F)c21` [Compound 93, 2-[1-ethyl-7-(2-fluoro-3-methoxyphenyl)imidazo[4,5-c]pyridin-2-yl]-1,2,4-triazol-3-amine], the inhibition at 20 ppm (in data set [1]; in [2]; in data set [3]; in the data set with Fusarium culmorum; in the data set with Sclerotinia sclerotiorum) was at least 80% each time. In addition, in data set [4], the pest or weed control at 20 ppm was at least 80%.

With `CCCn1c(-n2ncnc2N)nc2cncc(CC)c21` [Compound 174, 2-(7-ethyl-1-propyl-imidazo[4,5-c]pyridin-2-yl)-1,2,4-triazol-3-amine], the pest or weed control at 200 ppm (with Plasmopara viticola; in [5]) was at least 80% each time. Besides, the inhibition at 20 ppm (in data set [1]; in [3]; in the data set with Pythium ultimum) was at least 80% throughout.

Compound `CCCn1c(-n2ncnc2N)nc2cnccc21` [Compound 13, 2-(1-propylimidazo[4,5-c]pyridin-2-yl)-1,2,4-triazol-3-amine] registered a melting point of 210 to 212 °C. Also, the pest or weed control at 200 ppm in [5] was at least 80%. Further, the inhibition at 20 ppm in data set [1] was at least 80%. Besides, in [2], the inhibition at 20 ppm is at least 80%. The inhibition at 20 ppm in [3] was at least 80%. The inhibition at 20 ppm in the data set on Pythium ultimum was at least 80%. For the same compound, the pest or weed control at 20 ppm in data set [4] is at least 80%.

`CCc1cncc2nc(-n3ncnc3N)n(CC)c12` [Compound 23, 2-(1,7-diethylimidazo[4,5-c]pyridin-2-yl)-1,2,4-triazol-3-amine] gave a melting point of 176 to 179 °C. In addition, in [5], the pest or weed control at 200 ppm is at least 80%. In data set [1], the inhibition at 20 ppm was at least 80%. In addition, in data set [2], the inhibition at 20 ppm is at least 80%. For the same compound, the inhibition at 20 ppm in data set [3] is at least 80%. Also, in the data set on Pythium ultimum, the inhibition at 20 ppm was at least 80%. Also, the inhibition at 20 ppm in the data set on Fusarium culmorum was at least 80%. Moreover, the pest or weed control at 20 ppm in data set [4] was at least 80%. Also, the inhibition at 20 ppm in the data set on Sclerotinia sclerotiorum was at least 80%.

As for `CCn1c(-n2ncnc2N)nc2cncc(-c3ccc(F)c(F)c3F)c21` [Compound 86, 2-[1-ethyl-7-(2,3,4-trifluorophenyl)imidazo[4,5-c]pyridin-2-yl]-1,2,4-triazol-3-amine], the inhibition at 20 ppm (in [1]; in [2]; in data set [3]; in the data set with Pythium ultimum; in the data set with Fusarium culmorum; with Sclerotinia sclerotiorum) was at least 80% throughout.

As to `CCn1c(-n2ncnc2N)nc2cncc(-c3cccnc3F)c21` [Compound 89, 2-[1-ethyl-7-(2-fluoropyridin-3-yl)imidazo[4,5-c]pyridin-2-yl]-1,2,4-triazol-3-amine], the pest or weed control at 200 ppm in [5] is at least 80%. Further, the inhibition at 20 ppm (in data set [1]; in data set [3]; in the data set on Pythium ultimum; in the data set with Fusarium culmorum; with Sclerotinia sclerotiorum) was at least 80% throughout. In addition, the pest or weed control at 20 ppm in data set [4] is at least 80%.

Consider `CCn1c(-n2ncnc2N)nc2cncc(C(C)=O)c21` [Compound 75, 1-[2-(5-amino-1,2,4-triazol-1-yl)-1-ethylimidazo[4,5-c]pyridin-7-yl]ethanone], for which the melting point was in the range of 242 to 244 °C. For the same compound, the pest or weed control at 200 ppm in data set [5] was at least 80%. In addition, the inhibition at 20 ppm in [2] was at least 80%. The inhibition at 20 ppm in data set [3] was at least 80%. For the same compound, the inhibition at 20 ppm in the data set with Sclerotinia sclerotiorum is at least 80%.
